Measurements published in patent US20220227720A1, “DHODH INHIBITORS AND THEIR USE AS ANTIVIRAL AGENTS” (priority 2019, published 2022).
Values after ≈ are worked out from the molar mass of the structure shown. Where two headings read alike, the source gives them in different places.

Tests used:
TOSV = test: microbe, parasite or virus in culture; format: cell-based, Toscana virus
[1] = Cytotoxicity assay (CellTiter-Blue), Vero E6 cells; conditions: for CC50: cell line not given; for CC50 at 4 days: monkey (simian), Vero E6 cells, CC50, Simian Vero E6 cells, value repeated under each virus
HAZV = test: microbe, parasite or virus in culture; format: cell-based; conditions: Hazara virus, Vero C1008, read-out: IC50 HAZV
TAHV = test: microbe, parasite or virus in culture; format: cell-based; conditions: Tahyna virus, Vero C1008, read-out: IC50 TAHV
RVFV [2] = test: microbe, parasite or virus in culture; format: cell-based; conditions: Rift Valley fever virus, Vero C1008, read-out: IC50 RVFV
YFV [3] = test: microbe, parasite or virus in culture; format: cell-based; conditions: Yellow fever virus, Vero C1008, read-out: IC50 YFV
DENV = test: Virus yield reduction assay, DENV in Vero E6 cells; format: cell-based; conditions: Dengue virus, Vero C1008; Simian Vero E6 cells; FLAVI virus family
TBEV [4] = test: microbe, parasite or virus in culture; format: cell-based; conditions: Tick-borne encephalitis virus, Vero C1008, read-out: IC50 TBEV
VEEV [5] = test: microbe, parasite or virus in culture; format: cell-based; conditions: Venezuelan equine encephalitis virus, Vero C1008, read-out: IC50 VEEV
RVFV [6] = test: microbe, parasite or virus in culture; format: cell-based; conditions: Rift Valley fever virus, L929, in Mus musculus, read-out: IC50 RVFV
TBEV [7] = test: microbe, parasite or virus in culture; format: cell-based; conditions: Tick-borne encephalitis virus, L929, in Mus musculus, read-out: IC50 TBEV
RVFV [8] = test: microbe, parasite or virus in culture; format: cell-based; conditions: Rift Valley fever virus, BHK-21, in Mesocricetus auratus, read-out: IC50 RVFV
VEEV [9] = test: microbe, parasite or virus in culture; format: cell-based; conditions: Venezuelan equine encephalitis virus, BHK-21, in Mesocricetus auratus, read-out: IC50 VEEV
RVFV [10] = test: microbe, parasite or virus in culture; format: cell-based; conditions: Rift Valley fever virus, SW13, read-out: IC50 RVFV
TBEV [11] = test: microbe, parasite or virus in culture; format: cell-based; conditions: Tick-borne encephalitis virus, SW13, read-out: IC50 TBEV
VEEV [12] = test: microbe, parasite or virus in culture; format: cell-based; conditions: Venezuelan equine encephalitis virus, SW13, read-out: IC50 VEEV
RVFV [13] = test: microbe, parasite or virus in culture; format: cell-based; conditions: Rift Valley fever virus, HEK293, read-out: IC50 RVFV
Plasma stability = conditions: 1 μm, 37° C., mouse plasma diluted with 1 volume of PBS pH 7.4
Plasma protein binding = conditions: mouse, plasma diluted with 1 volume of PBS pH 7.4, pH 7.4
Solubility in PBS pH 7.4 = conditions: PBS pH 7.4, 20 °C, pH 7.4, aqueous buffer
[14] = Log D (PBS pH 7.4/octanol)
[15] = Cytotoxicity assay, L929 cells; conditions: mouse
[16] = Cytotoxicity assay, SW13 cells; conditions: human
[17] = Cytotoxicity assay, BHK-21 cells; conditions: hamster, BHK-21 cells, CC50, Hamster BHK-21 cells; value repeated under each virus
[18] = Cytotoxicity assay (CellTiter-Blue), HEK-293 cells; conditions: human
VEEV [19] = test: microbe, parasite or virus in culture; format: cell-based; conditions: Venezuelan equine encephalitis virus, L929, in Mus musculus, read-out: IC50 VEEV
Vero E6 cells = test: Cytotoxicity assay (CellTiter-Blue), Vero E6 cells; conditions: Simian Vero E6 cells; value repeated under each virus
ZIKV = test: Virus yield reduction assay, ZIKV in Vero E6 cells; format: cell-based; conditions: Zika virus, Vero C1008; Simian Vero E6 cells; FLAVI virus family
YFV [20] = test: microbe, parasite or virus in culture; format: cell-based; conditions: Yellow fever virus, BHK-21, in Mesocricetus auratus, read-out: IC50 YFV
TBEV [21] = test: microbe, parasite or virus in culture; format: cell-based; conditions: Tick-borne encephalitis virus, HEK293, read-out: IC50 TBEV
VEEV [22] = test: microbe, parasite or virus in culture; format: cell-based; conditions: Venezuelan equine encephalitis virus, HEK293, read-out: IC50 VEEV
[23] = Hepatic microsome stability; conditions: 1 μm, 37° C., 0.5 mg/mL microsomes of mouse liver; cofactor: NADPH
[24] = Metabolic stability in S9 fraction
[25] = Hydrolysis study in mouse liver extract; conditions: FIG. 1, FIG. 2
[26] = Toscana virus, Vero C1008, read-out: IC50 (TOSV)

| SMILES | IC50 (TOSV; [26]) [µM] | CC50 [1] [µM] | IC50 (HAZV) [µM] | IC50 (TAHV) [µM] | IC50 (RVFV [2]) [µM] | IC50 (TBEV [4]) [µM] | IC50 (VEEV [5]) [µM] | IC50 (TBEV [7]) [µM] | CC50 [15] [µM] | CC50 at 4 days [1] [µM] | IC50 (VEEV [19]) [µM] | further results |
| --- | --- | --- | --- | --- | --- | --- | --- | --- | --- | --- | --- | --- |
| CCC(C)c1ccccc1OCCCc1nc2ccc(F)cc2c(=O)o1 (stereo not drawn) [Example 22] | 0.3 | 17 | – | – | – | – | – | – | – | – | – | – |
| Cc1ccc(NC(=O)COc2ccccc2Cc2ccccc2)c(C(=O)O)c1 [Example 1] | 0.09 | – | 0.05 | 0.17 | 0.09 | 0.22 | 0.07 | 0.08 | 60 | 60 ± 15 | – | IC50 (YFV [3]): 0.2 µM; IC50 (DENV): 0.19 µM; IC50 (RVFV [6]): 0.04 µM; IC50 (RVFV [8]): 0.7 ± 0.03 µM; IC50 (VEEV [9]): 0.36 µM; IC50 (RVFV [10]): 0.28 µM; IC50 (TBEV [11]): 0.67 µM; IC50 (VEEV [12]): 0.1 µM; IC50 (RVFV [13]): 0.04 ± 0.02 µM; Plasma stability [% remaining at 2 h] (Plasma stability): 75 ± 0 % remaining at 2 h; fraction unbound at 1 μM (Plasma protein binding): 0.01; solubility (Solubility in PBS pH 7.4): 167 ± 7 µM (≈ 62.7 µg/mL); logD [14]: 2.62 ± 0.03; CC50 [16]: 60 µM; CC50 [17]: 140 µM; CC50 at 3 days [18]: 80 µM |
| CS(N)(=O)=O [methyl sulfonamide] | – | – | – | – | – | – | – | – | – | – | – | IC50 (TOSV; read-out: IC50 (TOSV)): 1.5 µM |
| COc1ccc(Nc2ccc(Oc3ccccc3)cc2)c(C(=O)O)c1 [Example 4] | 0.08 | – | 0.12 | 0.1 | 0.02 | 0.12 | 0.06 | 0.16 | 70 | 71 ± 1 | 0.22 | IC50 (YFV [3]): 0.22 µM; IC50 (DENV): 0.18 µM; IC50 (RVFV [8]): 0.85 µM; IC50 (VEEV [9]): 1.3 µM; IC50 (RVFV [10]): 0.13 µM; IC50 (TBEV [11]): 0.38 µM; IC50 (VEEV [12]): 0.22 µM; CC50 [16]: 75 µM; CC50 [17]: 125 µM; CC50 (Vero E6 cells): 37.9 µM; CC50 at 3 days [18]: 125 µM |
| O=C(O)c1ccccc1Nc1ccc(Cc2ccccc2)cc1 [Example 5] | 0.325 | – | 0.36 | 0.45 | – | – | – | – | 60 | 44 | > 1 | CC50 (Vero E6 cells): 77.5 µM |
| CCc1nc2cc(-c3ccc(-c4ccccc4)cc3)cc(C(=O)O)c2[nH]1 [Example 19] | 0.118 | 8 | – | – | – | – | – | – | – | – | – | – |
| O=C(COc1ccccc1Cc1ccccc1)Nc1ccc2c(c1C(=O)O)OC(F)(F)O2 [Example 17] | 6 | 32 | – | – | – | – | – | – | – | – | – | – |
| CCCCCc1ccc(C#Cc2ccc(NC(=O)CC)c(C(=O)O)c2)cc1 [Example 8, 5-((4-pentylphenyl)ethynyl)-2-propionamidobenzoic acid] | 0.01 | – | 0.008 | 0.01 | 0.006 | 0.07 | 0.007 | 0.0015 | 5 | 8 | 0.003 | IC50 (YFV [3]): 0.006 µM; IC50 (DENV): 0.005 µM; IC50 (ZIKV): 0.009 µM; IC50 (RVFV [6]): 0.002 µM; IC50 (RVFV [8]): 0.016 µM; IC50 (YFV [20]): 0.022 µM; IC50 (RVFV [10]): 0.008 µM; IC50 (TBEV [11]): 0.013 µM; IC50 (VEEV [12]): 0.013 µM; IC50 (RVFV [13]): 0.0015 µM; IC50 (TBEV [21]): 0.0031 µM; IC50 (VEEV [22]): 0.0015 µM; Plasma stability [% remaining at 2 h] (Plasma stability): 114 ± 5 % remaining at 2 h; solubility (Solubility in PBS pH 7.4): 18 ± 6 µM (≈ 6.54 µg/mL); logD [14]: 4.6 ± 0.3; Hepatic microsome stability [% remaining at 1 h] [23]: 70 ± 3 % remaining at 1 h; CC50 [16]: 20 µM; CC50 [17]: 7.5 µM |
| CC(C)c1ccccc1SCC(=O)Nc1ccccc1C(=O)O [Example 2] | 0.55 ± 0.05 | – | 0.7 ± 0.2 | 0.27 | ~2 | – | – | – | – | 110 ± 10 | – | IC50 (YFV [3]): 0.7 ± 0.2 µM; IC50 (RVFV [10]): 0.5 µM; IC50 (TBEV [11]): 0.93 µM; IC50 (VEEV [12]): 1.5 µM; IC50 (RVFV [13]): 0.4 µM; IC50 (VEEV [22]): 0.45 µM |
| CCC(C)(C)c1ccccc1OCCOC(=O)Nc1ccccc1C(=O)O [Example 13] | 0.128 | > 25 | – | – | – | – | – | – | – | – | – | Metabolic stability in a S9 fraction (rat) [24]: high metabolic stability |
| Cc1ccc2nc(COc3ccc(Cl)cc3Cc3ccccc3)oc(=O)c2c1 [Example 21] | 0.8 | > 100 | – | – | – | – | – | – | – | – | – | – |
| CCC(C)c1ccccc1OCCCC(=O)Nc1cnccc1C(=O)O (stereo not drawn) [Example 15] | ~0.5 | > 25 | – | – | – | – | – | – | – | – | – | – |
| O=C(O)c1ccccc1NC(=O)n1ccc2ccccc21 [Example 14] | 9 | 40 | – | – | – | – | – | – | – | – | – | – |
| CCC(C)c1ccccc1OCCCC(=O)Nc1ccccc1C(=O)O (racemic) [Example 3] | 0.07 ± 0.01 | – | 0.11 | 0.04 | 0.16 | 0.08 | 0.03 | 0.3 | – | 18.5 ± 1.5 | 0.6 | IC50 (YFV [3]): 0.11 µM; IC50 (DENV): 0.11 µM; IC50 (ZIKV): 0.11 µM; IC50 (RVFV [6]): 0.17 µM; IC50 (RVFV [10]): 0.05 µM; IC50 (TBEV [11]): 0.1 µM; IC50 (VEEV [12]): 0.13 µM; IC50 (RVFV [13]): 0.015 µM; IC50 (VEEV [22]): 0.05 µM; Plasma stability [% remaining at 2 h] (Plasma stability): 85 ± 4 % remaining at 2 h; fraction unbound at 1 μM (Plasma protein binding): 0.01; solubility (Solubility in PBS pH 7.4): 1540 ± 50 µM (≈ 547 µg/mL); logD [14]: 2.59 ± 0.03; Hydrolysis in mouse liver extract (amide bond stability) [25]: cleavage of the amide bond |
| CCC(=O)Nc1ccc(-c2ccc(-c3ccccc3)c(F)c2)cc1C(=O)O [Example 7] | 0.11 | – | 0.07 | 0.12 | 0.12 | 0.013 | 0.12 | 0.004 | 9 | 15 | 0.007 | IC50 (RVFV [6]): 0.0055 µM; IC50 (VEEV [22]): 0.014 µM |
| CCC(C)c1ccccc1OCc1nc2ccc(C)cc2c(=O)o1 (stereo not drawn) [Example 20] | 0.6 | 75 | – | – | – | – | – | – | – | – | – | – |
| CCC(C)c1ccccc1OCCOC(=O)Nc1ccccc1C(=O)O (stereo not drawn) [Example 12] | 0.19 | 51 | – | – | – | – | – | – | – | – | – | Metabolic stability in a S9 fraction (rat) [24]: high metabolic stability |
| CCC(=O)Nc1ccc(-c2ccc(-c3ccccc3)cc2)cc1C(=O)O [Example 6] | 0.12 | – | 0.12 | – | 0.14 | 0.12 ± 0.01 | 0.12 | 0.009 | 15 | 10 | 0.009 | IC50 (RVFV [6]): 0.003 µM; IC50 (RVFV [8]): > 0.2 µM; IC50 (YFV [20]): > 0.2 µM; IC50 (VEEV [22]): 0.019 µM; Plasma stability [% remaining at 2 h] (Plasma stability): 94 ± 6 % remaining at 2 h; solubility (Solubility in PBS pH 7.4): 61 ± 17 µM (≈ 21.1 µg/mL); logD [14]: 3.07 ± 0.05; Hepatic microsome stability [% remaining at 1 h] [23]: 49 ± 0 % remaining at 1 h; Hydrolysis in mouse liver extract (amide bond stability) [25]: more stable |
| CCC(C)c1ccccc1OCC(=O)Nc1ccc2c(c1C(=O)O)OC(F)(F)O2 (stereo not drawn) [Example 16] | 4 | 37 | – | – | – | – | – | – | – | – | – | – |
